Assay results taken from patent US11332440B2, “4-oxo-alkylated tetramic acid compound, and preparation method thereof” (priority 2017, dated 2022).

Assay: Pharmacokinetic evaluation, plasma and brain concentrations
Type: in vivo, ICR mice
Source text: Distribution of a medicament in the body is one of the important indicators to determine the dose and efficacy of the medicament. Thus, excellent candidate compounds should have good pharmacokinetic characteristics. In addition, since the compound of the present invention is intended to be used for the treatment of Alzheimer's disease, which is a disease of the central nervous system, the distribution pattern of the compound in the brain and the blood is also one of the subjects to be investigated. In this experiment, compound 50561 was administered to mice […] or by gavage, and the concentrations of the compound in blood and brain were measured at specific time points to determine the pharmacokinetic parameters.
Forty-eight male ICR mice purchased from Shanghai Sippr-BK Lab. Animal Co. Ltd were used in this experiment. The oral group was fasted for 10-14 hours before administration, and feeding was restored 4 hours after administration. Samples were collected from the intravenous administration group 0.083 h, 0.25 h, 0.5 h, 1 h, 2 h, 4 h, 8 h, and 24 h after administration, respectively; while for the oral administration group, about 0.5 mL of blood was collected from the heart 0.25 h, 0.5 h, 1 h, 2 h, 4 h, 6 h, 8 h, and 24 h after administration, respectively. Heparin sodium was used for anticoagulation. Blood samples were collected and placed on ice, and plasma was separated by centrifugation (centrifugation conditions: 8000 rpm, 6 minutes, 4C). The collected plasma was stored at −80° C. before analysis. After collecting plasma samples, brain tissues were collected, washed with normal saline, water-absorbed by filter paper, weighed immediately, and then placed in labeled tubes (one tube for one brain tissue). The samples to be tested were temporarily placed on ice before being stored in a −80° C. refrigerator.
The analysis methods of biological samples and the analysis of all samples were done by Medicilon Pharmaceutical Technology (Shanghai) Co., Ltd. The intraday accuracy evaluation of the quality control samples was carried out while analyzing the samples, and the accuracy of over 66.7% of the quality control samples was required to be between 80-120%.
When calculating the pharmacokinetic parameters, the BLQ before Cmax (including “No peak”) was calculated as 0; BLQ occurring after Cmax (including “No peak”) was not involved in the calculation. WinNonlin Professional V 5.2 (Pharsight, USA) was adopted to calculate the following pharmacokinetic parameters: AUC(0-t), AUC(0-∞), T1/2, MRT(0-∞), Cmax, and Tmax. The tissue/plasma ratio was to be calculated by the following formula based on the blood concentration data at different time points: Tissue/plasma ratio (mL/g)=tissue blood concentration/plasma blood concentration.

Compound: O=C1C=C(OCc2ccc(F)cc2)[C@H](Cc2ccccc2)N1 [Compound 50561]
- Brain/plasma ratio (IV 1 mg/kg, 0.083 hr, G1-1): 2.604 mL/G
- Brain/plasma ratio (IV 1 mg/kg, 0.083 hr, G1-2): 2.645 mL/G
- Brain/plasma ratio (IV 1 mg/kg, 0.083 hr, G1-3): 2.249 mL/G
- Brain/plasma ratio (IV 1 mg/kg, 0.083 hr, Mean): 2.499 mL/G
- Brain/plasma ratio (IV 1 mg/kg, 0.25 hr, G1-1): 2.451 mL/G
- Brain/plasma ratio (IV 1 mg/kg, 0.25 hr, G1-2): 2.415 mL/G
- Brain/plasma ratio (IV 1 mg/kg, 0.25 hr, G1-3): 2.159 mL/G
- Brain/plasma ratio (IV 1 mg/kg, 0.25 hr, Mean): 2.342 mL/G
- Brain/plasma ratio (IV 1 mg/kg, 0.5 hr, G1-1): 2.540 mL/G
- Brain/plasma ratio (IV 1 mg/kg, 0.5 hr, G1-2): 2.564 mL/G
- Brain/plasma ratio (IV 1 mg/kg, 0.5 hr, G1-3): 2.361 mL/G
- Brain/plasma ratio (IV 1 mg/kg, 0.5 hr, Mean): 2.488 mL/G
- Brain/plasma ratio (IV 1 mg/kg, 1 hr, G1-1): 2.330 mL/G
- Brain/plasma ratio (IV 1 mg/kg, 1 hr, G1-2): 3.941 mL/G
- Brain/plasma ratio (IV 1 mg/kg, 1 hr, G1-3): 2.751 mL/G
- Brain/plasma ratio (IV 1 mg/kg, 1 hr, Mean): 3.007 mL/G
- Blood concentration (IV 1 mg/kg, 2 hr, G1-1): BLQ
- Brain tissue concentration (IV 1 mg/kg, 2 hr, G1-1): BLQ
- Blood concentration (IV 1 mg/kg, 2 hr, G1-2): BLQ
- Brain tissue concentration (IV 1 mg/kg, 2 hr, G1-2): BLQ
- Blood concentration (IV 1 mg/kg, 2 hr, G1-3): BLQ
- Brain tissue concentration (IV 1 mg/kg, 2 hr, G1-3): BLQ
- Blood concentration (IV 1 mg/kg, 4 hr, G1-1): BLQ
- Brain tissue concentration (IV 1 mg/kg, 4 hr, G1-1): BLQ
- Blood concentration (IV 1 mg/kg, 4 hr, G1-2): BLQ
- Brain tissue concentration (IV 1 mg/kg, 4 hr, G1-2): BLQ
- Blood concentration (IV 1 mg/kg, 4 hr, G1-3): BLQ
- Brain tissue concentration (IV 1 mg/kg, 4 hr, G1-3): BLQ
- Blood concentration (IV 1 mg/kg, 8 hr, G1-1): BLQ
- Brain tissue concentration (IV 1 mg/kg, 8 hr, G1-1): BLQ
- Blood concentration (IV 1 mg/kg, 8 hr, G1-2): BLQ
- Brain tissue concentration (IV 1 mg/kg, 8 hr, G1-2): BLQ
- Blood concentration (IV 1 mg/kg, 8 hr, G1-3): BLQ
- Brain tissue concentration (IV 1 mg/kg, 8 hr, G1-3): BLQ
- Blood concentration (IV 1 mg/kg, 24 hr, G1-1): BLQ
- Brain tissue concentration (IV 1 mg/kg, 24 hr, G1-1): BLQ
- Blood concentration (IV 1 mg/kg, 24 hr, G1-2): BLQ
- Brain tissue concentration (IV 1 mg/kg, 24 hr, G1-2): BLQ
- Blood concentration (IV 1 mg/kg, 24 hr, G1-3): BLQ
- Brain tissue concentration (IV 1 mg/kg, 24 hr, G1-3): BLQ
- Brain/plasma ratio (PO 10 mg/kg, 0.25 hr, G2-1): 1.948 mL/G
- Brain/plasma ratio (PO 10 mg/kg, 0.25 hr, G2-2): 1.590 mL/G
- Brain/plasma ratio (PO 10 mg/kg, 0.25 hr, G2-3): 2.093 mL/G
- Brain/plasma ratio (PO 10 mg/kg, 0.25 hr, Mean): 1.877 mL/G
- Brain/plasma ratio (PO 10 mg/kg, 0.5 hr, G2-1): 2.435 mL/G
- Brain/plasma ratio (PO 10 mg/kg, 0.5 hr, G2-2): 2.027 mL/G
- Brain/plasma ratio (PO 10 mg/kg, 0.5 hr, G2-3): 1.980 mL/G
- Brain/plasma ratio (PO 10 mg/kg, 0.5 hr, Mean): 2.147 mL/G
- Brain/plasma ratio (PO 10 mg/kg, 1 hr, G2-1): 2.485 mL/G
- Brain/plasma ratio (PO 10 mg/kg, 1 hr, G2-2): 2.152 mL/G
- Brain/plasma ratio (PO 10 mg/kg, 1 hr, G2-3): 2.158 mL/G
- Brain/plasma ratio (PO 10 mg/kg, 1 hr, Mean): 2.265 mL/G
- Brain/plasma ratio (PO 10 mg/kg, 2 hr, G2-1): 2.163 mL/G
- Brain/plasma ratio (PO 10 mg/kg, 2 hr, G2-2): 2.454 mL/G
- Brain/plasma ratio (PO 10 mg/kg, 2 hr, G2-3): 2.372 mL/G
- Brain/plasma ratio (PO 10 mg/kg, 2 hr, Mean): 2.329 mL/G
- Brain/plasma ratio (PO 10 mg/kg, 4 hr, G2-1): 2.373 mL/G
- Brain/plasma ratio (PO 10 mg/kg, 4 hr, G2-2): 2.428 mL/G
- Brain/plasma ratio (PO 10 mg/kg, 4 hr, G2-3): 1.355 mL/G
- Brain/plasma ratio (PO 10 mg/kg, 4 hr, Mean): 2.052 mL/G
- Brain/plasma ratio (PO 10 mg/kg, 6 hr, G2-1): 1.839 mL/G
- Brain/plasma ratio (PO 10 mg/kg, 6 hr, G2-2): 2.764 mL/G
- Brain/plasma ratio (PO 10 mg/kg, 6 hr, G2-3): 2.929 mL/G
- Brain/plasma ratio (PO 10 mg/kg, 6 hr, Mean): 2.511 mL/G
- Brain/plasma ratio (PO 10 mg/kg, 8 hr, G2-1): 1.575 mL/G
- Brain/plasma ratio (PO 10 mg/kg, 8 hr, G2-2): 2.443 mL/G
- Brain tissue concentration (PO 10 mg/kg, 8 hr, G2-3): BLQ
- Brain/plasma ratio (PO 10 mg/kg, 8 hr, Mean): 2.009 mL/G
- Blood concentration (PO 10 mg/kg, 24 hr, G2-1): BLQ
- Brain tissue concentration (PO 10 mg/kg, 24 hr, G2-1): BLQ
- Blood concentration (PO 10 mg/kg, 24 hr, G2-2): BLQ
- Brain tissue concentration (PO 10 mg/kg, 24 hr, G2-2): BLQ
- Blood concentration (PO 10 mg/kg, 24 hr, G2-3): BLQ
- Brain tissue concentration (PO 10 mg/kg, 24 hr, G2-3): BLQ
- blood-brain barrier permeability (content in brain tissue versus blood) (after intravenous injection and oral administration): good blood-brain barrier permeability
- concentration at 0.083 h (male, ICR, mouse, brain, IV 1 mg/kg, 0.083 hr, G1-3, read-out: Brain tissue concentration): 977 ng/g
